Results published in ChEMBL document CHEMBL2203177, “Tuning the activity of a short arg-trp antimicrobial Peptide by lipidation of a C- or N-terminal lysine side-chain” (ACS Med Chem Lett, 2012).
Values after ≈ are worked out from the molar mass of the structure shown. Peptide text beside a SMILES is read from it. * marks the point of attachment. Myristoyl = CCCCCCCCCCCCCC(=O)*; Decanoyl = CCCCCCCCCC(=O)*; Butyryl = CCCC(=O)*

What was measured:
Staphylococcus aureus [1] = assay: Antibacterial activity against Staphylococcus aureus ATCC 43300 assessed as growth inhibition after 18 hrs; type: functional; conditions: ATCC 43300, 18 h
Staphylococcus aureus [2] = assay: Antibacterial activity against Staphylococcus aureus DSM 20231 assessed as growth inhibition after 18 hrs; type: functional; conditions: DSM 20231, 18 h
Pseudomonas aeruginosa = assay: Antibacterial activity against Pseudomonas aeruginosa DSM 50071 assessed as growth inhibition after 18 hrs; type: functional; conditions: DSM 50071, 18 h
Acinetobacter baumannii = assay: Antibacterial activity against Acinetobacter baumannii DSM 30007 assessed as growth inhibition after 18 hrs; type: functional; conditions: DSM 30007, 18 h
Bacillus subtilis [3] = assay: Bactericidal activity against Bacillus subtilis 168 (trpC2)2 assessed as survival rate at twice MIC concentration incubated for 15 mins measured after 18 hrs; type: functional, subsp. subtilis str. 168 (trpC2)2
Escherichia coli = assay: Antibacterial activity against Escherichia coli DSM 30083 assessed as growth inhibition after 18 hrs; type: functional; conditions: DSM 30083, 18 h
Bacillus subtilis [4] = assay: Antibacterial activity against Bacillus subtilis 168 DSM 402 assessed as growth inhibition after 18 hrs; type: functional; conditions: subsp. subtilis str. 168 DSM 402, 18 h
[5] = Hemolytic activity against human RBC assessed as hemoglobin leakage at 250 ug/ml; type: ADME, cell-based, Erythrocyte; conditions: human red blood cells, read-out: Activity

Row | SMILES | MIC (Staphylococcus aureus [1]) [µM] | MIC (Staphylococcus aureus [2]) [µM] | MIC (Pseudomonas aeruginosa) [µM] | MIC (Acinetobacter baumannii) [µM] | Survival (Bacillus subtilis [3]) [%] | MIC (Escherichia coli) [µM] | MIC (Bacillus subtilis [4]) [µM] | hemolysis at 250 ug/ml [5] [%]
1 | CCCCCCCCCC(=O)NCCCC[C@H](N)C(=O)N[C@@H](CCCNC(=N)N)C(=O)N[C@@H](Cc1c[nH]c2ccccc12)C(=O)N[C@@H](CCCNC(=N)N)C(=O)N[C@@H](Cc1c[nH]c2ccccc12)C(=O)N[C@@H](CCCNC(=N)N)C(=O)N[C@@H](Cc1c[nH]c2ccccc12)C(N)=O (H-K(Decanoyl)RWRWRW-NH2) | 1 (≈ 1.33 µg/mL) | 2 (≈ 2.65 µg/mL) | 9 (≈ 11.9 µg/mL) | 9 (≈ 11.9 µg/mL) | 0.016 | 5 (≈ 6.63 µg/mL) | 2 (≈ 2.65 µg/mL) | > 50
2 | N=C(N)NCCC[C@H](NC(=O)[C@H](Cc1c[nH]c2ccccc12)NC(=O)[C@H](CCCNC(=N)N)NC(=O)[C@H](Cc1c[nH]c2ccccc12)NC(=O)[C@@H](N)CCCNC(=N)N)C(=O)N[C@@H](Cc1c[nH]c2ccccc12)C(N)=O (H-RWRWRW-NH2) | 6 (≈ 6.27 µg/mL) | 11 (≈ 11.5 µg/mL) | > 100 | 85 (≈ 88.8 µg/mL) | 2.8 | 21 (≈ 21.9 µg/mL) | 3 (≈ 3.13 µg/mL) | < 10
3 | CCCC(=O)NCCCC[C@H](N)C(=O)N[C@@H](CCCNC(=N)N)C(=O)N[C@@H](Cc1c[nH]c2ccccc12)C(=O)N[C@@H](CCCNC(=N)N)C(=O)N[C@@H](Cc1c[nH]c2ccccc12)C(=O)N[C@@H](CCCNC(=N)N)C(=O)N[C@@H](Cc1c[nH]c2ccccc12)C(N)=O (H-K(Butyryl)RWRWRW-NH2) | 19 (≈ 23.6 µg/mL) | 38 (≈ 47.2 µg/mL) | > 100 | > 100 |  | 38 (≈ 47.2 µg/mL) | 2 (≈ 2.49 µg/mL) | < 10
4 | CCCCCCCCCCCCCC(=O)NCCCC[C@H](NC(=O)[C@H](Cc1c[nH]c2ccccc12)NC(=O)[C@H](CCCNC(=N)N)NC(=O)[C@H](Cc1c[nH]c2ccccc12)NC(=O)[C@H](CCCNC(=N)N)NC(=O)[C@H](Cc1c[nH]c2ccccc12)NC(=O)[C@@H](N)CCCNC(=N)N)C(N)=O (H-RWRWRWK(Myristoyl)-NH2) | 2 (≈ 2.77 µg/mL) | 2 (≈ 2.77 µg/mL) | 70 (≈ 96.8 µg/mL) | 9 (≈ 12.4 µg/mL) | 0 | 17 (≈ 23.5 µg/mL) | 4 (≈ 5.53 µg/mL) | > 50
5 | CC(=O)NCCCC[C@H](N)C(=O)N[C@@H](CCCNC(=N)N)C(=O)N[C@@H](Cc1c[nH]c2ccccc12)C(=O)N[C@@H](CCCNC(=N)N)C(=O)N[C@@H](Cc1c[nH]c2ccccc12)C(=O)N[C@@H](CCCNC(=N)N)C(=O)N[C@@H](Cc1c[nH]c2ccccc12)C(N)=O (H-K(Ac)RWRWRW-NH2) | > 100 | > 100 | > 100 | > 100 |  | > 100 | 10 (≈ 12.1 µg/mL) | < 10
6 | N=C(N)NCCC[C@H](NC(=O)[C@H](Cc1c[nH]c2ccccc12)NC(=O)[C@H](CCCNC(=N)N)NC(=O)[C@H](Cc1c[nH]c2ccccc12)NC(=O)[C@@H](N)CCCNC(=N)N)C(=O)N[C@@H](Cc1c[nH]c2ccccc12)C(=O)N[C@@H](CCCCN)C(N)=O (H-RWRWRWK-NH2) | 18 (≈ 21.1 µg/mL) | 37 (≈ 43.4 µg/mL) | > 100 | > 100 |  | 18 (≈ 21.1 µg/mL) | 5 (≈ 5.86 µg/mL) | < 10
7 | CC(=O)NCCCC[C@H](NC(=O)[C@H](Cc1c[nH]c2ccccc12)NC(=O)[C@H](CCCNC(=N)N)NC(=O)[C@H](Cc1c[nH]c2ccccc12)NC(=O)[C@H](CCCNC(=N)N)NC(=O)[C@H](Cc1c[nH]c2ccccc12)NC(=O)[C@@H](N)CCCNC(=N)N)C(N)=O (H-RWRWRWK(Ac)-NH2) | > 100 | > 100 | > 100 | > 100 |  | > 100 | 10 (≈ 12.1 µg/mL) | < 10
8 | CCCC(=O)NCCCC[C@H](NC(=O)[C@H](Cc1c[nH]c2ccccc12)NC(=O)[C@H](CCCNC(=N)N)NC(=O)[C@H](Cc1c[nH]c2ccccc12)NC(=O)[C@H](CCCNC(=N)N)NC(=O)[C@H](Cc1c[nH]c2ccccc12)NC(=O)[C@@H](N)CCCNC(=N)N)C(N)=O (H-RWRWRWK(Butyryl)-NH2) | 38 (≈ 47.2 µg/mL) | > 100 | > 100 | > 100 |  | 38 (≈ 47.2 µg/mL) | 5 (≈ 6.21 µg/mL) | < 10
